In assay [1] the test system is cultured wild-type mouse astrocytes. As to the kind of experiment: Fura-2 intracellular Ca2+ imaging in cultured wild-type astrocytes. The note with it: 30 μM TFLLR; for level of astrocytic intracellular Ca^2+ (Fura-2 fluorescence ratio): 10 μM bradykinin, 50 μM 2-methyl-thio-ATP, 10 μM ATP, 30 nM thrombin; for effect on TFLLR-induced Ca^2+ response: 1 μM BMS200261, 1 μM thapsigargin, 50 μM BAPTA-AM 30 min, 2 μM U-73122 10 min. Format: cell-based. The method, then: Cultured astrocytes were prepared from P0-P3 postnatal mice obtained from KIST SPF. The cerebral cortex was dissected free of adherent meninges, minced, and dissociated into single cell suspension by trituration through a Pasteur pipette. All procedures involving the use of animals were reviewed and approved by the Emory University IACUC. Dissociated cells were plated onto either 12 mm glass coverslips or 6 well plates coated with 0.1 mg/ml poly-D-lysine. Cells were grown in a DMEM media (Gibco, cat# 11960-044) supplemented with 25 mM glucose, 10% heat-inactivated horse serum, and 10% heat-inactivated fetal bovine serum, 2 mM glutamine, and 1000 units/ml penicillin-streptomycin. Cultures were maintained at 37° C. in a humidified 5% CO2-containing atmosphere. […] In some experiments, the culture media was replaced 24 hours after plating with DMEM with all added components except glutamine, and cultures were maintained for 4 days before experimentation in glutamine-free media.
Cultured astrocytes were incubated with 5 µM Fura2-AM in […] pluronic acid (Molecular Probes) for 30 min at room temperature, and subsequently transferred to a microscope stage for imaging. The external solution contained 150 mM NaCl, 10 mM HEPES, 3 mM KCl, 2 mM CaCl2, 2 mM MgCl2, and 5.5 mM glucose, and the pH was adjusted to pH 7.3 and osmolarity to 325 mOsm. Intensity images of a 510 nm wavelength were taken at 340 nm and 380 nm excitation wavelengths using either a Micromax Camera (Princeton) or an intensified video camera (PTI), and the two resulting images were used for ratio calculations using Axon Imaging Workbench version 2.2.1.

The next assay deals with CA1 pyramidal neurons. As to the kind of experiment: Ca2+ dye imaging of CA1 pyramidal neurons in hippocampal slices. Format: cell-based, rat. Particulars: thrombin 30 nM, TFLLR 30 μM, trans-ACPD 100 μM, (S)-3,5-dihydroxyphenylglycine 30 μM. The method, then: Young rats (Sprague-Dawley, age P15-P20) or mice (C57/B16, age P14-19) were deeply anesthetized with isoflurane and decapitated. The brain was rapidly removed and submerged in an ice-cold oxygenated artificial cerebrospinal fluid (ACSF) comprised of 130 mM NaCl, 24 mM NaHCO3, 3.5 mM KCl, 1.25 mM NaH2PO4, 1 mM CaCl2,3 mM MgCl2, and 10 mM glucose saturated with 95% O2/5% CO2, at pH 7.4.
The external solution contained 1 μM TTX. Throughout the experiments, −5 mV voltage steps (15 ms duration) were applied at 30 sec intervals from a holding potential of −70 mV to continuously monitor the holding current, series resistance, and membrane input resistance. After entering whole-cell mode, the CA1 pyramidal cells in slices were maintained for 20 min to allow for dye filling before image acquisition using a Princeton Micromax camera.
After the baseline period, TFLLR (30-100 μM) was applied, and images were acquired every 3 sec with a 25 ms exposure to 450-490 nm light for each image. Ca^2+-dependent fluorescence intensity (520 nm) was measured in cell bodies and processes by using Axon Imaging Workbench (v2.2.1) and expressed as ratio image of (F-Fo)/Fo, where Fo is the fluorescence intensity before drug treatment.

The next assay has as its system wild-type astrocytes. Kind of assay: Sniffer-patch detection of glutamate release, GluR1(L497Y)-transfected HEK cells on wild-type astrocytes. Format: cell-based, mouse. The method, then: HEK 293 cells (ATCC1573) were plated onto 12 mm glass coverslips coated with 5-10 ug/ml poly-D-lysine and grown in a DMEM media (Gibco, cat# 11960-044) supplemented with 25 mM glucose, 10% heat-inactivated horse serum, and 10% heat-inactivated fetal bovine serum, 2 mM glutamine, and 1000 units/ml penicillin-streptomycin (Banke & Traynelis, 2000; Traynelis & Wahl, 1996). The obtained cultures were maintained at 37° C. in a humidified 5% CO2-containing atmosphere.
HEK 293 cells were transfected with a 1:3.5 ratio of GFP and GluR1(L497Y) using the calcium phosphate method using effectence for 6-8 hours, after which the media was replaced and supplemented with 1 mM kynurenic acid and 10 μM N-(4-hydroxyphenylpropanoyl) spermine or 10 μM CNQX. The transfected HEK cells were subsequently trypsinized and replated onto astrocyte feeder layers derived from either wild-type or PAR1−/− mice 24 hours post-transfection, and recordings performed 24 hours after replating.
(§1) Whole-cell perforated-patch recording from cultured cortical neurons or HEK cells under voltage clamp (holding potential −60 mV) was made with an Axopatch 200B amplifier (Axon Instruments, Union City, Calif.). The recording chamber was continually perfused with a recording solution comprised of 150 mM NaCl, 3 mM KCl, 2 mM CaCl2, 5.5 mM glucose, and 10 mM HEPES (pH 7.4 by NaOH; osmolality adjusted to 315-320 mOsm with sucrose). Recording electrodes (4-7 MΩ) were filled with (in mM) 150 mM CsMeSO4, 10 mM NaCl, 0.5 CaCl2, 10 mM HEPES, and 25-50 μg/ml gramicidin D (pH adjusted to 7.3 with CsOH and osmolality adjusted to 310 mOsm with sucrose). It took 20-30 min to achieve acceptable perforation with series resistance ranging from 30-60 MΩ. All electrophysiological data from cultured neurons cells in this study were collected at room temperature (23-26° C.).
Thus, this technique provides millisecond time resolution for the detection of micromolar levels of glutamate released from astrocytes.
GluR1(L497Y)-transfected HEK cells were directly plated onto an astrocyte monolayer, and subsequently the whole cell HEK current response under voltage clamp during a brief 0.2 sec application of the PAR1 activator TFLLR (500 μM), ATP (300 μM), or bradykinin (180 μM), respectively, from a pressurized pipette was recorded (FIGS. 5a, and 5b).
Concentration(t)=EC50[response(t)/(100−response(t))]^(1/n) (Formula 1)

The test system of a further assay is PAR1−/− mouse astrocytes. As to the kind of experiment: Fura-2 intracellular Ca2+ imaging in cultured PAR1−/− astrocytes. Format: cell-based. Particulars: 30 μM TFLLR, 30 nM thrombin, 10 μM ATP positive control. As for the experimental part: Cultured astrocytes were prepared from P0-P3 postnatal mice obtained from KIST SPF. The cerebral cortex was dissected free of adherent meninges, minced, and dissociated into single cell suspension by trituration through a Pasteur pipette. All procedures involving the use of animals were reviewed and approved by the Emory University IACUC. Dissociated cells were plated onto either 12 mm glass coverslips or 6 well plates coated with 0.1 mg/ml poly-D-lysine. Cells were grown in a DMEM media (Gibco, cat# 11960-044) supplemented with 25 mM glucose, 10% heat-inactivated horse serum, and 10% heat-inactivated fetal bovine serum, 2 mM glutamine, and 1000 units/ml penicillin-streptomycin. Cultures were maintained at 37° C. in a humidified 5% CO2-containing atmosphere. Astrocyte cultures prepared in this way were previously determined by GFAP (glial fibrillary acidic protein) staining to be greater than 95% astrocytes (Nicole et al., 2005). In some experiments, the culture media was replaced 24 hours after plating with DMEM with all added components except glutamine, and cultures were maintained for 4 days before experimentation in glutamine-free media.
Cultured astrocytes were incubated with 5 µM Fura2-AM in […] pluronic acid (Molecular Probes) for 30 min at room temperature, and subsequently transferred to a microscope stage for imaging. […]

A further assay relates to cultured astrocytes. Kind of assay: 3H-glutamate release assay in cultured wild-type astrocytes. Format: cell-based, mouse. The note with it: 50 μM BAPTA-AM 30 min; 50 μM trans-PDC present or absent. As for the experimental part: Astrocytes obtained in the above Example 1.1 were loaded with 0.5 μM L-3H-glutamate for 60 min by adding […] of 1 mCi/ml L-3H-glutamate stock solution to 2 ml of DMEM culture media.
Cells were washed with an external solution 3 times.
Agonists (TFLLR 30 μM) were added to the external solution for 6 min and the experiment was terminated by collection of the solution. Each experimental run included a control condition in which no agonist was added. Six replicates were obtained for each drug condition. For analysis, the average radioactivity count was obtained from 6 replicates for each condition and this average was compared to the average of the control condition.
Cells were washed with an external solution and subsequently TFLLR (30 μM) was added for 6 min. […] In the top panel, the thick boxes represent cells in culture media and the white boxes represent cells in external solution.

Another assay deals with cultured neurons. As to the kind of experiment: Sniffer-patch glutamate release from cultured neurons. The note with it: 10 μM CNQX, 530 mOsm. The format is cell-based. The method, then: To verify this prediction, effects of a hyperosmotic solution on the glutamate-release from cultured neurons and astrocytes were evaluated and are shown in FIGS. 7a to 7c.
The detection is abolished by the treatment of 10 μM CNQX.

The test system of assay [2] is PAR1−/− cortical neurons on wild-type astrocyte monolayer. As to the kind of experiment: PAR1−/− cortical neurons co-cultured on wild-type astrocytes: dendritic Ca2+ and voltage clamp. Format: cell-based, mouse. Particulars: 300 μM TFLLR pressure-applied to astrocytes; 50 μM NMDA. The method, then: For an astrocyte-neuron co-culture, a monolayer of wild-type astrocytes was grown to 70-100% confluency (7-14 days in culture). Subsequently, the cortex from a P0 to P5 PAR1−/− mouse (Connolly et al., 1996) was dissected free of meninges and digested for 30 min in 1 mg/ml trypsin at 37° C. PAR1−/− mice were >99% C57B1/6 (>7 backcrossings), and wild-type mice were from a colony derived from PAR1−/− littermates.
All experiments were done within 3 generations of establishing the homozygous colony. The cortical cells were plated at low density on top of the monolayer of wild-type astrocytes obtained in above Example 1.1. Neurons were used for Ca^2+ imaging after 1-5 days in culture.
as §1
After a 20 min recovery, the bath perfusion was stopped and TFLLR was applied by brief (<1 sec) pressure ejection onto the astrocyte hosting the dye-loaded neuron in a static bath condition. Changes in fluorescence were monitored in a number of dendritic processes (schematized in FIGS. 8a and 8b).

Another assay concerns the target T1, GluR1(L497Y) (Rattus norvegicus, UniProt P19490, L497Y).
T1 construct: expressed in transfected cells; host or cells: HEK 293 cells (ATCC1573)
Kind of assay: Glutamate activation of GluR1(L497Y) in transfected HEK cells. Format: cell-based. The method, then:
HEK 293 cells were transfected with a 1:3.5 ratio of GFP and GluR1(L497Y) using the calcium phosphate method using effectence for 6-8 hours, after which the media was replaced and supplemented with 1 mM kynurenic acid and 10 μM N-(4-hydroxyphenylpropanoyl) spermine or 10 μM CNQX.
as §1

The next assay has as its system glutamate transporters. The note with it: read-out: IC50 glutamate uptake block; Mitrovic & Johnston, 1994; cited from earlier work.

This is an account of results in patent publication US20080299109A1, “MECHANISM OF ASTRICYTE-NEURON SIGNALING” (Korea Institute of Science and Technology, priority 2007, published 2008).

pIC50: −log10 of the molar value.

The term Hill slope denotes the slope factor of the fitted curve. A word on the pIC50: it is −log10 of the IC50, conventionally taken in molar units.

T1 sequence (P19490 19-907 L497Y): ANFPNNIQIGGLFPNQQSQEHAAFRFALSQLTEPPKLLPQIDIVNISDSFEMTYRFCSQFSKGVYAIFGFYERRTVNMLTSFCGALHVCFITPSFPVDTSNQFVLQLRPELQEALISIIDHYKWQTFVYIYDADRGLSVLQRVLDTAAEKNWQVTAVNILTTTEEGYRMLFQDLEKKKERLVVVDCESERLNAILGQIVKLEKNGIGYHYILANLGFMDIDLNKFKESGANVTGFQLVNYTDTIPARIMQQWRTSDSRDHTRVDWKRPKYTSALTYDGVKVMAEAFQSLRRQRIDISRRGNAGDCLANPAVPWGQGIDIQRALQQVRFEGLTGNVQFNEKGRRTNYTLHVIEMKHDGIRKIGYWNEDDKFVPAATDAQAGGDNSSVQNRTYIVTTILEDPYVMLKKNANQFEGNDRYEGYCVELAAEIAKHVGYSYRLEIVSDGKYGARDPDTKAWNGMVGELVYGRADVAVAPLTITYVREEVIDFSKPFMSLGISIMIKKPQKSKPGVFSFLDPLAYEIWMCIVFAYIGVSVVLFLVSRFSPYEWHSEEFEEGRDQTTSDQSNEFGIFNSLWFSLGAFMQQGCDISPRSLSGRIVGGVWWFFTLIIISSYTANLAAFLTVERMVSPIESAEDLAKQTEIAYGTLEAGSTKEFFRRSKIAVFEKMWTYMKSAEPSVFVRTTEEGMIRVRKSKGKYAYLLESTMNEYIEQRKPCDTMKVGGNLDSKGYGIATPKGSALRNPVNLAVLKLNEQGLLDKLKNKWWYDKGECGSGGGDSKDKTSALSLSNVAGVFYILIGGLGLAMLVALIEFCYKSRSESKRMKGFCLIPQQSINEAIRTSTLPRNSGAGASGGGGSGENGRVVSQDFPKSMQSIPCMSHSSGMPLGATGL

On to `CSc1nc(N)c2ncn([C@@H]3O[C@H](COP(=O)(O)OP(=O)(O)OP(=O)(O)O)[C@@H](O)[C@H]3O)c2n1` [2-methyl-thio-ATP], for which the “level of astrocytic intracellular Ca^2+ (Fura-2 fluorescence ratio)” value in [1] is listed as “increase”.

Consider `N[C@H](C(=O)O)c1cc(O)cc(O)c1` [(S)-3,5-dihydroxyphenylglycine], for which, in the assay with CA1 pyramidal neurons, the “somatic fluorescence of Ca^2+-sensitive dyes in CA1 pyramidal neurons” value is on record as “strong increases”.

For the compound `Nc1ncnc2c1ncn2[C@@H]1O[C@H](COP(=O)(O)OP(=O)(O)OP(=O)(O)O)[C@@H](O)[C@H]1O` [ATP], the “inward current in adjacent GluR1(L497Y)-transfected HEK cell” value with wild-type astrocytes (brief pressure application 500 μM TFLLR, 300 μM ATP, 180 μM bradykinin) is reported as “elicited an inward current”. The same compound displayed a peak glutamate concentration in the assay on wild-type astrocytes (wild-type astrocytes, converted from current by Formula 1) of approximately 5.9 µM. Moreover, in assay [1], the “level of astrocytic intracellular Ca^2+ (Fura-2 fluorescence ratio)” value is “increase”. For the same compound, the “intracellular Ca^2+ concentration in PAR1−/− astrocytes” value in the assay with PAR1−/− mouse astrocytes was “still responded”.

As for `CC(=O)OCOC(=O)CN(CC(=O)OCOC(C)=O)c1ccccc1OCCOc1ccccc1N(CC(=O)OCOC(C)=O)CC(=O)OCOC(C)=O` [BAPTA-AM, 1,2-bis(2-aminophenoxy)ethane-N,N,N′,N′-tetra-acetic acid acetoxymethyl ester], in the assay with cultured astrocytes, the “effect on TFLLR-induced glutamate release” value was “blocked”.

As for `N#Cc1cc2[nH]c(=O)c(=O)[nH]c2cc1[N+](=O)[O-]` [CNQX], the “effect on detection of hyperosmotic-solution evoked neuronal glutamate release” value in the assay with cultured neurons is listed as “abolished”. Also, the “effect on TFLLR-evoked inward current in GluR1(L497Y) HEK cell” value in the assay on wild-type astrocytes (10 μM CNQX) is recorded as “reversibly inhibits”. The “effect on TFLLR-evoked inward currents, glutamine-free medium” value in the assay with wild-type astrocytes (glutamine-free medium) is on record as “completely abolished”.

For `CN[C@H](CC(=O)O)C(=O)O` [NMDA, N-methyl-D-aspartic acid], the “intra-neuronal Ca^2+ in dendrites (Oregon Green BAPTA-2 fluorescence)” value in assay [2] is reported as “saturating response”.

Take `COc1ccc2c(c1)CC[C@@H]1[C@@H]2CC[C@]2(C)[C@@H](NCCCCCCN3C(=O)C=CC3=O)CC[C@@H]12` [U-73122]: in assay [1], the “effect on TFLLR-induced Ca^2+ response” value was “similarly blocked”.

Regarding `N[C@@H](CCC(=O)O)C(=O)O` [glutamate], the Hill slope on GluR1(L497Y) worked out at 1.3.

As for `C/C=C(/C)C(=O)O[C@H]1C(C)=C2[C@H]([C@@H]1OC(=O)CCCCCCC)[C@@](C)(OC(C)=O)C[C@H](OC(=O)CCC)[C@@]1(O)[C@H]2OC(=O)[C@@]1(C)O` [thapsigargin], the “effect on TFLLR-induced Ca^2+ response” value in assay [1] is “blocked”.

On to `O=C(O)[C@H]1CN[C@H](C(=O)O)C1` [trans-PDC, L-transpyrrolidine-2,4-dicarboxylic acid], for which, in the assay on glutamate transporters, the negative-log IC50 (pIC50) was 5.10 to 5.40. For the same compound, the “effect on TFLLR-induced glutamate release” value with cultured astrocytes is recorded as “indistinguishable”.

For the compound “trans-Cinnamoyl-F(f)-F(Gn)L-Arg-Arg-NH2 [BMS 200261]”, the “effect on TFLLR-induced Ca^2+ response” value in assay [1] was “reversibly and completely antagonized”.
